Consider one cell line from the supplement of paper PMC10307832.

Common to all, as to assay: relative viability (nuclei count vs DMSO), 5 days (fraction); higher = more cells survive
Compound in the test “Dabrafenib + Trametinib”: CC(C)(C)c1nc(-c2cccc(NS(=O)(=O)c3c(F)cccc3F)c2F)c(-c2ccnc(N)n2)s1 [Dabrafenib] + CC(=O)Nc1cccc(-n2c(=O)n(C3CC3)c(=O)c3c(Nc4ccc(I)cc4F)n(C)c(=O)c(C)c32)c1 [Trametinib] (partner 0.02 µM)
Summed up:
(§1)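 Each reported value is a median over duplicate plates. It expresses relative viability: treated-well nuclei count divided by vehicle-well nuclei count. Lung cancer cell lines in 1536-well plates were dosed by pin tool a day after seeding, alone with one drug or with a fixed anchor-drug dose plus five library-drug doses (not always all listed) in √10 steps, and nuclei were counted after 5 days.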

Compound in the test “Dabrafenib + Pemetrexed”: CC(C)(C)c1nc(-c2cccc(NS(=O)(=O)c3c(F)cccc3F)c2F)c(-c2ccnc(N)n2)s1 [Dabrafenib] + Nc1nc2[nH]cc(CCc3ccc(C(=O)N[C@@H](CCC(=O)O)C(=O)O)cc3)c2c(=O)[nH]1 [Pemetrexed] (partner 0.2 µM)
Put shortly: as §1

Compound in the test “VX-702 + Luminespib”: NC(=O)c1ccc(N(C(N)=O)c2c(F)cccc2F)nc1-c1ccc(F)cc1F [VX-702] + CCNC(=O)c1noc(-c2cc(C(C)C)c(O)cc2O)c1-c1ccc(CN2CCOCC2)cc1 [Luminespib] (partner 0.01 µM)
Summed up:
as §1

Compound in the test “VX-702 + AZD7762”: NC(=O)c1ccc(N(C(N)=O)c2c(F)cccc2F)nc1-c1ccc(F)cc1F [VX-702] + NC(=O)Nc1cc(-c2cccc(F)c2)sc1C(=O)N[C@H]1CCCNC1 [AZD7762] (partner 0.2 µM)
Put shortly: as §1

Compound in the test “VX-702 + Decitabine”: NC(=O)c1ccc(N(C(N)=O)c2c(F)cccc2F)nc1-c1ccc(F)cc1F [VX-702] + Nc1ncn([C@H]2C[C@H](O)[C@@H](CO)O2)c(=O)n1 [Decitabine] (partner 2 µM)
Summed up: as §1

For SW 900, the relative viability with Dabrafenib + Trametinib (first compound 0.009487 µM) was determined as 0.671; with Dabrafenib + Trametinib (first compound 0.09487 µM) it was 1.04; with Dabrafenib + Trametinib (first compound 0.3 µM), 0.93; in the test with Dabrafenib + Pemetrexed (first compound 0.009487 µM), 0.494; with Dabrafenib + Pemetrexed (first compound 0.09487 µM) it was 0.477; in the test with Dabrafenib + Pemetrexed (first compound 0.3 µM), 0.45. For the same cell line, the relative viability was determined as 0.202 with VX-702 + Luminespib (first compound 0.02 µM); 0.188 in the test with VX-702 + Luminespib (first compound 0.2 µM); 0.15 with VX-702 + Luminespib (first compound 0.6325 µM); 0.16 with VX-702 + Luminespib (first compound 2 µM); 0.611 with VX-702 + AZD7762 (first compound 0.02 µM); 0.502 with VX-702 + AZD7762 (first compound 0.2 µM). Besides, the relative viability was found to be 0.492 with VX-702 + AZD7762 (first compound 0.6325 µM); 0.572 with VX-702 + AZD7762 (first compound 2 µM); 0.47 in the test with VX-702 + Decitabine (first compound 0.02 µM); 0.375 with VX-702 + Decitabine (first compound 0.2 µM); 0.393 with VX-702 + Decitabine (first compound 0.6325 µM); 0.425 with VX-702 + Decitabine (first compound 2 µM).
